Data: PubChem BioAssay AID328 (DTP/NCI, 2004)
Several values for one entry are separate records, joined by “and”; a condition that tells them apart may be missing. Identical values can stand only once. Toxic doses and inconclusive results are not listed.

Test system: BDF1 mice, P388 leukemia ip, median survival T/C
Assay: NCI In Vivo Anticancer Drug Screen. Data for tumor model P388 Leukemia (intraperitoneal) in B6D2F1 (BDF1) mice
Conditions: endpoint: median survival time, higher = longer survival
Summary of the method: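 Mice carrying the transplantable tumour receive compound or vehicle. Survival is followed in each arm, and the treated measure is divided by the vehicle measure.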

[1] = dose: 12.5 mg/kg/injection, schedule: Q01DX009 (ip), vehicle: saline with Tween-80
[2] = dose: 25.0 mg/kg/injection, schedule: Q01DX009 (ip), vehicle: saline with Tween-80
[3] = dose: 50.0 mg/kg/injection, schedule: Q01DX009 (ip), vehicle: saline with Tween-80
[4] = dose: 100.0 mg/kg/injection, schedule: Q01DX009 (ip), vehicle: saline with Tween-80
[5] = dose: 200.0 mg/kg/injection, schedule: Q01DX009 (ip), vehicle: saline with Tween-80
[6] = dose: 400.0 mg/kg/injection, schedule: Q01DX009 (ip), vehicle: saline with Tween-80
[7] = dose: 100.0 mg/kg/injection, schedule: Q01DX009 (ip), vehicle: Klucel (hydroxypropylcellulose) (HPC)
[8] = dose: 200.0 mg/kg/injection, schedule: Q01DX009 (ip), vehicle: Klucel (hydroxypropylcellulose) (HPC)
[9] = dose: 50.0 mg/kg/injection, schedule: Q01DX009 (ip), vehicle: Klucel (hydroxypropylcellulose) (HPC)
[10] = dose: 12.5 mg/kg/injection, schedule: Q04DX003 (ip), vehicle: saline
[11] = dose: 25.0 mg/kg/injection, schedule: Q04DX003 (ip), vehicle: saline

COC(=O)CCCc1ccc(OC)c(OC)c1
T/C [1]: 96 % of control
T/C [2]: 100 % of control
T/C [3]: 97 % of control and 123 % of control
T/C [4]: 97 % of control and 113 % of control
T/C [5]: 105 % of control

Nc1nc([Se])c2ncn(C3OC(CO)C(O)C3O)c2n1 (configuration not stated)
T/C (dose: 32.0 mg/kg/injection, schedule: Q01DX009 (ip), vehicle: saline): 100 % of control

O=C1OC(c2ccccc2)(c2ccccc2)Cc2ccccc21
T/C [4]: 105 % of control
T/C [5]: 105 % of control
T/C [6]: 100 % of control

CC(C)[N+](C)(C)CC(O)COc1cccc2ccccc12 (configuration not stated)
T/C (dose: 12.5 mg/kg/injection, schedule: Q01DX009 (ip), vehicle: saline): 103 % of control and 112 % of control
T/C (dose: 25.0 mg/kg/injection, schedule: Q01DX009 (ip), vehicle: saline): 88 % of control and 109 % of control
T/C (dose: 50.0 mg/kg/injection, schedule: Q01DX009 (ip), vehicle: saline): 105 % of control and 123 % of control

CC1=C(N2CCN(c3ccc(Cl)cc3)CC2)C(=O)CC(C)(C)C1
T/C [7]: 110 % of control
T/C [8]: 105 % of control
T/C (dose: 400.0 mg/kg/injection, schedule: Q01DX009 (ip), vehicle: Klucel (hydroxypropylcellulose) (HPC)): 100 % of control

CC1CC/C(=C\c2ccccc2)C(=O)/C1=C/c1ccccc1 (configuration not stated)
T/C (dose: 100.0 mg/kg/injection, schedule: Q04DX003 (ip), vehicle: DMSO): 112 % of control
T/C (dose: 200.0 mg/kg/injection, schedule: Q04DX003 (ip), vehicle: DMSO): 87 % of control
T/C (dose: 400.0 mg/kg/injection, schedule: Q04DX003 (ip), vehicle: DMSO): 87 % of control

Nc1nc(=S)c2[nH]c(N=Nc3ccc(S(N)(=O)=O)cc3)nc2[nH]1
T/C (dose: 12.5 mg/kg/injection, schedule: Q04DX003 (ip), vehicle: Klucel (hydroxypropylcellulose) (HPC)): 166 % of control
T/C (dose: 25.0 mg/kg/injection, schedule: Q04DX003 (ip), vehicle: Klucel (hydroxypropylcellulose) (HPC)): 156 % of control

COc1ccc2c(c1)CCN1C2CCN2C(=O)CCC21 (configuration not stated)
T/C (dose: 100.0 mg/kg/injection, schedule: Q01DX009 (ip), vehicle: saline sonified): 104 % of control
T/C (dose: 200.0 mg/kg/injection, schedule: Q01DX009 (ip), vehicle: saline sonified): 113 % of control
T/C (dose: 400.0 mg/kg/injection, schedule: Q01DX009 (ip), vehicle: saline sonified): 100 % of control

O=C(/C=C(\Cl)C(=O)NO)NO
T/C (dose: 11.0 mg/kg/injection, schedule: Q01DX009 (ip), vehicle: saline): 103 % of control
T/C (dose: 16.0 mg/kg/injection, schedule: Q01DX009 (ip), vehicle: saline): 107 % of control
T/C (dose: 100.0 mg/kg/injection, schedule: Q01DX009 (ip), vehicle: saline): 154 % of control

CCCCCCCCCCCCCCCCCC[N+]1([O-])CCCC1
T/C (dose: 12.5 mg/kg/injection, schedule: Q01DX009 (ip), vehicle: water): 100 % of control
T/C (dose: 25.0 mg/kg/injection, schedule: Q01DX009 (ip), vehicle: water): 93 % of control
T/C (dose: 50.0 mg/kg/injection, schedule: Q01DX009 (ip), vehicle: water): 93 % of control

Nc1nnc2cc(F)ccc2n1
T/C [9]: 100 % of control
T/C [7]: 112 % of control
T/C [8]: 102 % of control

COCCOCCN1CCN(CCCN2c3ccccc3Sc3ccc(C(F)(F)F)cc32)CC1
T/C [10]: 112 % of control
T/C [11]: 108 % of control

CCCCC(CC)COC(OCC(CC)CCCC)C(OCC(CC)CCCC)OCC(CC)CCCC (configuration not stated)
T/C [4]: 100 % of control
T/C [5]: 100 % of control
T/C [6]: 90 % of control

CCCCOCN(COCCCC)c1ncccn1
T/C [3]: 108 % of control
T/C [4]: 106 % of control
T/C [5]: 104 % of control

Cc1ccc(S(=O)(=O)N2CC(O)CC2C(=O)O)cc1 (configuration not stated)
T/C (dose: 100.0 mg/kg/injection, schedule: Q01DX001 (ip), vehicle: saline with Tween-80): 118 % of control
T/C (dose: 200.0 mg/kg/injection, schedule: Q01DX001 (ip), vehicle: saline with Tween-80): 100 % of control
T/C (dose: 400.0 mg/kg/injection, schedule: Q01DX001 (ip), vehicle: saline with Tween-80): 113 % of control

NC(=O)c1ncc(-c2ccc(Cl)cc2)[nH]c1=O
T/C [4]: 95 % of control
T/C [5]: 90 % of control
T/C [6]: 109 % of control

c1ccc2nc(-c3cc4ccccc4s3)ccc2c1
T/C (dose: 100.0 mg/kg/injection, schedule: Q04DX003 (ip), vehicle: saline sonified): 104 % of control
T/C (dose: 200.0 mg/kg/injection, schedule: Q04DX003 (ip), vehicle: saline sonified): 95 % of control
T/C (dose: 400.0 mg/kg/injection, schedule: Q04DX003 (ip), vehicle: saline sonified): 118 % of control

CC1(C)N=C(N)N=C(N)N1c1ccc(CCCCc2ccc(S(=O)(=O)F)cc2Cl)c(Cl)c1
T/C (dose: 5.0 mg/kg/injection, schedule: Q01DX009 (ip), vehicle: saline with Tween-80): 157 % of control
T/C (dose: 7.5 mg/kg/injection, schedule: Q01DX009 (ip), vehicle: saline with Tween-80): 150 % of control and 166 % of control
T/C (dose: 8.0 mg/kg/injection, schedule: Q04DX003 (ip), vehicle: saline with Tween-80): 168 % of control
T/C (dose: 11.5 mg/kg/injection, schedule: Q01DX009 (ip), vehicle: saline with Tween-80): 200 % of control
T/C (dose: 12.0 mg/kg/injection, schedule: Q04DX003 (ip), vehicle: saline with Tween-80): 186 % of control
T/C (dose: 17.0 mg/kg/injection, schedule: Q01DX009 (ip), vehicle: saline with Tween-80): 188 % of control and 191 % of control
T/C (dose: 18.0 mg/kg/injection, schedule: Q04DX003 (ip), vehicle: saline with Tween-80): 200 % of control
T/C [2]: 208 % of control and 220 % of control
T/C (dose: 26.0 mg/kg/injection, schedule: Q04DX003 (ip), vehicle: saline with Tween-80): 200 % of control
T/C (dose: 26.5 mg/kg/injection, schedule: Q04DX003 (ip), vehicle: saline with Tween-80): 195 % of control
T/C (dose: 37.0 mg/kg/injection, schedule: Q01DX009 (ip), vehicle: saline with Tween-80): 176 % of control
T/C (dose: 40.0 mg/kg/injection, schedule: Q04DX003 (ip), vehicle: saline with Tween-80): 209 % of control
T/C [3]: 241 % of control
T/C (dose: 60.0 mg/kg/injection, schedule: Q04DX003 (ip), vehicle: saline with Tween-80): 176 % of control
T/C (dose: 88.0 mg/kg/injection, schedule: Q04DX003 (ip), vehicle: saline with Tween-80): 209 % of control
T/C (dose: 90.0 mg/kg/injection, schedule: Q04DX003 (ip), vehicle: saline with Tween-80): 180 % of control
T/C [4]: 116 % of control
T/C (dose: 133.0 mg/kg/injection, schedule: Q04DX003 (ip), vehicle: saline with Tween-80): 272 % of control
T/C (dose: 200.0 mg/kg/injection, schedule: Q04DX003 (ip), vehicle: saline with Tween-80): 272 % of control

O=[N+]([O-])c1cc([N+](=O)[O-])c(Nc2cccc3ccccc23)c([N+](=O)[O-])c1
T/C [9]: 100 % of control
T/C [7]: 100 % of control
T/C [8]: 103 % of control

COc1cc(C#N)ccc1O
T/C (dose: 100.0 mg/kg/injection, schedule: Q01DX009 (ip), vehicle: gum acacia): 100 % of control
T/C (dose: 100.0 mg/kg/injection, schedule: Q04DX003 (ip), vehicle: gum acacia): 92 % of control
T/C (dose: 200.0 mg/kg/injection, schedule: Q01DX009 (ip), vehicle: gum acacia): 87 % of control
T/C (dose: 200.0 mg/kg/injection, schedule: Q04DX003 (ip), vehicle: gum acacia): 88 % of control

Oc1cc(CN(CCCl)CCCl)c(O)cc1CN(CCCl)CCCl
T/C (dose: 0.63 mg/kg/injection, schedule: Q01DX010 (ip), vehicle: saline): 170 % of control
T/C (dose: 1.25 mg/kg/injection, schedule: Q01DX010 (ip), vehicle: saline): 163 % of control and 210 % of control
T/C (dose: 2.5 mg/kg/injection, schedule: Q01DX010 (ip), vehicle: saline): 177 % of control and 220 % of control
T/C (dose: 5.0 mg/kg/injection, schedule: Q01DX010 (ip), vehicle: saline): 165 % of control

CC1CCC2(OC1)OC1C(O)C3C4CCC5CC(OC6OC(CO)C(OC7OC(CO)C(O)C(OC8OCC(O)C(O)C8O)C7OC7OC(CO)C(O)C(OC8OC(CO)C(O)C(O)C8O)C7O)C(O)C6O)C(O)CC5(C)C4CCC3(C)C1C2C (configuration not stated)
T/C (dose: 6.25 mg/kg/injection, schedule: Q01DX009 (ip), vehicle: saline with Tween-80): 100 % of control
T/C (dose: 6.25 mg/kg/injection, schedule: Q04DX003 (ip), vehicle: saline): 92 % of control
T/C [1]: 95 % of control
T/C [10]: 92 % of control
T/C [2]: 104 % of control
T/C [11]: 96 % of control

COc1cc(C=Nc2ccc(-n3ccnc3C)cc2)ccc1N(CCCl)CCCl
T/C (dose: 5.0 mg/kg/injection, schedule: Q01DX009 (ip), vehicle: Klucel (hydroxypropylcellulose) (HPC)): 157 % of control
T/C (dose: 7.5 mg/kg/injection, schedule: Q01DX009 (ip), vehicle: Klucel (hydroxypropylcellulose) (HPC)): 162 % of control
